Key:
Assay type in all cases: functional, cell-based
HOP-62 = assay: Anticancer activity against human HOP62 cells by HTS assay
HeLa = assay: Anticancer activity against human HeLa cells by HTS assay
NCI-H157 = assay: Anticancer activity against human NCI-H157 cells by HTS assay
[1] = Anticancer activity against human LOXIMVI cells by HTS assay; details: LOX IMVI
[2] = Anticancer activity against human 292G cells by HTS assay
[3] = Anticancer activity against human SKBR cells by HTS assay
[4] = Anticancer activity against human H460 cells by HTS assay; details: NCI-H460
M14 = assay: Anticancer activity against human M14 cells by HTS assay
A549 = assay: Anticancer activity against human A549 cells by HTS assay
[5] = Anticancer activity against human […] cells by HTS assay
[6] = Anticancer activity against human M4E cells by HTS assay
NCI-H522 = assay: Anticancer activity against human NCI-H522 cells by HTS assay
[7] = Anticancer activity against human NCI-H1944 cells by HTS assay
[8] = Anticancer activity against human Calu1 cells by HTS assay; details: Calu-1
NCI-H1792 = assay: Anticancer activity against human NCI-H1792 cells by HTS assay
[9] = Anticancer activity against human H1299 cells by HTS assay; details: NCI-H1299

Row | SMILES | IC50 (HOP-62) [µM] | IC50 (HeLa) [µM] | IC50 (NCI-H157) [µM] | IC50 [1] [µM] | IC50 [2] [µM] | IC50 [3] [µM] | IC50 [4] [µM] | IC50 (M14) [µM] | IC50 (A549) [µM] | IC50 [5] [µM] | IC50 [6] [µM] | IC50 (NCI-H522) [µM] | IC50 [7] [µM] | IC50 [8] [µM] | IC50 (NCI-H1792) [µM] | IC50 [9] [µM]
1 | CCOc1cc(O)c2c(=O)c(OCC)c(-c3ccc(O)c(O)c3)oc2c1 | 10.6 | 0.91 | 8.09 | 15.2 | 17.2 | 6.26 | 5.25 | 20.3 | 1.19 | 29.1 | 20.4 | > 50 | 10.1 | 37.4 | 2.51 | 12.8
2 | COc1cc(O)c2c(=O)c(OC)c(-c3ccc(O)c(O)c3)oc2c1 | 13.2 | 11.1 | 13 | 24.1 | 24 | 5.28 | 7.02 | 21.7 | 5.4 | > 50 | 21.3 | > 50 | 0.46 | 39.6 | 19.7 | 15.6
3 | O=c1c(O)c(-c2ccc(O)c(O)c2)oc2cc(O)cc(O)c12 [QUERCETIN] | 7.52 | 3.56 | 6 | 4.65 | > 50 | 16.7 | 9.62 | 12.8 | 6.2 | 16.9 | 21.7 | 5.77 | 10.2 | 23.6 | 3.85 | 13.6
4 | CCCCOc1c(-c2ccc(O)c(O)c2)oc2cc(O)cc(O)c2c1=O | 21 | 10.6 | 6.32 | 26.3 | 28.9 | 9.18 | 19.7 | 25.6 | 13.4 | 31.7 | 18.9 | 12.6 | 7.04 | > 50 | 4.57 | > 50
5 | COc1cc(O)c2c(=O)c(OC)c(-c3ccc(OC)c(O)c3)oc2c1 [AYANIN] | 20.1 | 19.5 | 18.6 | 46 | > 50 | 10.8 | 12.8 | 37.1 | 20.8 | > 50 | 16.2 | 20.2 | 21.9 | > 50 | > 50 | > 50
6 | COc1ccc(-c2oc3cc(O)cc(O)c3c(=O)c2O)cc1O [TAMARIXETIN] | 9.93 | 1.81 | 3.04 | > 50 | 12.5 | 7.97 | 4.45 | 14.8 | 2.63 | 7.57 | 19.9 | > 50 | 3.86 | 24.9 | 4.06 | 22
7 | CCCOc1c(-c2ccc(O)c(O)c2)oc2cc(O)cc(O)c2c1=O | 2.44 | 0.57 | 0.8 | 2.38 | 2.11 | 0.45 | 1.69 | 2.26 | 0.79 | 3.02 | 1.9 | 1.4 | 0.91 | 7.08 | 3.13 | 6.03
8 | CCOc1cc(O)c2c(=O)c(OCC)c(-c3ccc(OCC)c(OCC)c3)oc2c1 | 44 | > 50 | > 50 | 19.4 | > 50 | > 50 | 22.1 | > 50 | 47.6 | > 50 | 21.4 | > 50 | > 50 | > 50 | > 50 | 24.9

Next, values leading:

Row | IC50 (HOP-62) [µM] | IC50 (HeLa) [µM] | IC50 (NCI-H157) [µM] | IC50 [1] [µM] | IC50 [2] [µM] | IC50 [3] [µM] | IC50 [4] [µM] | IC50 (M14) [µM] | IC50 (A549) [µM] | IC50 [5] [µM] | IC50 [6] [µM] | IC50 (NCI-H522) [µM] | IC50 [7] [µM] | IC50 [8] [µM] | IC50 (NCI-H1792) [µM] | IC50 [9] [µM] | SMILES
9 | 4.68 | 6.09 | 5.92 | 2.55 | 8.75 | 4.58 | 3.05 | 3.47 | 1.13 | 8.92 | 11.2 | > 50 | 1.17 | 5.46 | 6.03 | 5.05 | CCCCOc1cc(O)c2c(=O)c(OCCCC)c(-c3ccc(O)c(O)c3)oc2c1
10 | 30.2 | 20.2 | > 50 | 49.4 | > 50 | > 50 | 9.7 | > 50 | 22.6 | 25.5 | > 50 | 7.21 | 42.4 | > 50 | > 50 | 21.8 | CCOc1cc(O)c2c(=O)c(O)c(-c3ccc(OCC)c(O)c3)oc2c1
11 | > 50 | 6.62 | > 50 | > 50 | > 50 | > 50 | > 50 | > 50 | 31.5 | > 50 | > 50 | > 50 | > 50 | > 50 | > 50 | > 50 | CCCCOc1cc(O)c2c(=O)c(OCCCC)c(-c3ccc(OCCCC)c(O)c3)oc2c1
12 | 21.9 | 21.6 | 10.2 | > 50 | 28.5 | 18 | 12.2 | 25.4 | 13.9 | 31.1 | 27.4 | 49.5 | 21.4 | 26.5 | 13.3 | 46.5 | CCCOc1ccc(-c2oc3cc(O)cc(O)c3c(=O)c2O)cc1O
13 | 4.43 | 0.87 | 0.39 | 2.36 | 17.7 | 4.39 | 3.16 | 9.35 | 2.06 | 15.9 | 6.29 | 35.6 | 0.56 | 6.21 | 3.09 | 4.54 | CCCCOc1cc(O)c2c(=O)c(O)c(-c3ccc(OCCCC)c(O)c3)oc2c1
14 | 12.4 | 9.48 | 6.1 | 28.8 | 9.89 | 6.72 | 6.84 | 19.4 | 5.44 | 18.2 | 17.1 | 17.7 | 5.85 | 25.3 | 10.5 | 16 | CCCCOc1ccc(-c2oc3cc(O)cc(O)c3c(=O)c2O)cc1O
15 | 36 | 12.9 | > 50 | > 50 | > 50 | 12 | 28.8 | 34 | 18.6 | > 50 | 48.2 | > 50 | 4.75 | > 50 | > 50 | 22.8 | CCCOc1cc(O)c2c(=O)c(OCCC)c(-c3ccc(OCCC)c(O)c3)oc2c1
